{
  "source": "the supplement of paper PMC10307832",
  "assay_in_all_cases": "relative viability (nuclei count vs DMSO), 5 days (fraction); higher = more cells survive",
  "key": {"H3255": {"system": "H3255", "method_in_brief": "(§1)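 Cells from lung cancer lines were seeded into 1536-well plates and, one day later, dosed by pin tool. Treatments were either a single drug or a fixed dose of an anchor drug with five library-drug doses (not always all listed) in √10 steps. After 5 days, nuclei were stained in a one-step fixation (final 0.05% Triton X-100, 1% formaldehyde, 1 ug/ml Hoechst) and counted on 4× images, and relative viability is the treated-to-vehicle nuclei ratio, as the median of duplicate plates.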"}, "NCI-H1944": {"system": "NCI-H1944", "method_in_brief": "as §1"}, "NCI-H1915": {"system": "NCI-H1915", "method_in_brief": "as §1"}, "NCI-H661": {"system": "NCI-H661", "method_in_brief": "as §1"}, "ABC-1": {"system": "ABC-1", "method_in_brief": "as §1"}, "NCI-H441": {"system": "NCI-H441", "method_in_brief": "as §1"}, "NCI-H1650": {"system": "NCI-H1650", "method_in_brief": "as §1"}, "NCI-H2087": {"system": "NCI-H2087", "method_in_brief": "as §1"}, "NCI-H2023": {"system": "NCI-H2023", "method_in_brief": "as §1"}, "BEN": {"system": "BEN", "method_in_brief": "as §1"}, "CAL-12T": {"system": "CAL-12T", "method_in_brief": "as §1"}},
  "data": [
    {"smiles": "O=c1cc(N2CCOCC2)oc2c(-c3cccc4c3sc3ccccc34)cccc12", "note": "+ O=C(c1cc(Cc2n[nH]c(=O)c3ccccc23)ccc1F)N1CCN(C(=O)C2CC2)CC1 [Olaparib] (partner 8 µM)", "values": [
      {"measurement": "relative viability", "setting": "H3255; first compound 0.01 µM", "value": 0.544},
      {"measurement": "relative viability", "setting": "H3255; first compound 0.03162 µM", "value": 0.517},
      {"measurement": "relative viability", "setting": "H3255; first compound 0.1 µM", "value": 0.567},
      {"measurement": "relative viability", "setting": "H3255; first compound 0.3162 µM", "value": 0.512},
      {"measurement": "relative viability", "setting": "H3255; first compound 1 µM", "value": 0.53},
      {"measurement": "relative viability", "setting": "NCI-H1944; first compound 0.01 µM", "value": 0.438},
      {"measurement": "relative viability", "setting": "NCI-H1944; first compound 0.03162 µM", "value": 0.406},
      {"measurement": "relative viability", "setting": "NCI-H1944; first compound 0.1 µM", "value": 0.4},
      {"measurement": "relative viability", "setting": "NCI-H1944; first compound 0.3162 µM", "value": 0.384},
      {"measurement": "relative viability", "setting": "NCI-H1944; first compound 1 µM", "value": 0.393},
      {"measurement": "relative viability", "setting": "NCI-H1915; first compound 0.01 µM", "value": 0.258},
      {"measurement": "relative viability", "setting": "NCI-H1915; first compound 0.03162 µM", "value": 0.269},
      {"measurement": "relative viability", "setting": "NCI-H1915; first compound 0.1 µM", "value": 0.301},
      {"measurement": "relative viability", "setting": "NCI-H1915; first compound 0.3162 µM", "value": 0.26},
      {"measurement": "relative viability", "setting": "NCI-H1915; first compound 1 µM", "value": 0.262},
      {"measurement": "relative viability", "setting": "NCI-H661; first compound 0.01 µM", "value": 0.744},
      {"measurement": "relative viability", "setting": "NCI-H661; first compound 0.03162 µM", "value": 0.725},
      {"measurement": "relative viability", "setting": "NCI-H661; first compound 0.1 µM", "value": 0.709},
      {"measurement": "relative viability", "setting": "NCI-H661; first compound 0.3162 µM", "value": 0.732},
      {"measurement": "relative viability", "setting": "NCI-H661; first compound 1 µM", "value": 0.721},
      {"measurement": "relative viability", "setting": "ABC-1; first compound 0.01 µM", "value": 0.917},
      {"measurement": "relative viability", "setting": "ABC-1; first compound 0.03162 µM", "value": 0.686},
      {"measurement": "relative viability", "setting": "ABC-1; first compound 0.1 µM", "value": 0.535},
      {"measurement": "relative viability", "setting": "ABC-1; first compound 0.3162 µM", "value": 0.677},
      {"measurement": "relative viability", "setting": "ABC-1; first compound 1 µM", "value": 0.726},
      {"measurement": "relative viability", "setting": "NCI-H441; first compound 0.01 µM", "value": 0.485},
      {"measurement": "relative viability", "setting": "NCI-H441; first compound 0.03162 µM", "value": 0.48},
      {"measurement": "relative viability", "setting": "NCI-H441; first compound 0.1 µM", "value": 0.643},
      {"measurement": "relative viability", "setting": "NCI-H441; first compound 0.3162 µM", "value": 0.631},
      {"measurement": "relative viability", "setting": "NCI-H441; first compound 1 µM", "value": 0.585},
      {"measurement": "relative viability", "setting": "NCI-H1650; first compound 0.01 µM", "value": 0.667},
      {"measurement": "relative viability", "setting": "NCI-H1650; first compound 0.03162 µM", "value": 0.752},
      {"measurement": "relative viability", "setting": "NCI-H1650; first compound 0.1 µM", "value": 0.94},
      {"measurement": "relative viability", "setting": "NCI-H1650; first compound 0.3162 µM", "value": 0.739},
      {"measurement": "relative viability", "setting": "NCI-H1650; first compound 1 µM", "value": 0.624},
      {"measurement": "relative viability", "setting": "NCI-H2087; first compound 0.01 µM", "value": 0.544},
      {"measurement": "relative viability", "setting": "NCI-H2087; first compound 0.03162 µM", "value": 0.65},
      {"measurement": "relative viability", "setting": "NCI-H2087; first compound 0.1 µM", "value": 0.672},
      {"measurement": "relative viability", "setting": "NCI-H2087; first compound 0.3162 µM", "value": 0.552},
      {"measurement": "relative viability", "setting": "NCI-H2087; first compound 1 µM", "value": 0.587},
      {"measurement": "relative viability", "setting": "NCI-H2023; first compound 0.01 µM", "value": 0.514},
      {"measurement": "relative viability", "setting": "NCI-H2023; first compound 0.03162 µM", "value": 0.471},
      {"measurement": "relative viability", "setting": "NCI-H2023; first compound 0.1 µM", "value": 0.491},
      {"measurement": "relative viability", "setting": "NCI-H2023; first compound 0.3162 µM", "value": 0.513},
      {"measurement": "relative viability", "setting": "NCI-H2023; first compound 1 µM", "value": 0.468},
      {"measurement": "relative viability", "setting": "BEN; first compound 0.01 µM", "value": 1.12},
      {"measurement": "relative viability", "setting": "BEN; first compound 0.03162 µM", "value": 1.21},
      {"measurement": "relative viability", "setting": "BEN; first compound 0.1 µM", "value": 1.21},
      {"measurement": "relative viability", "setting": "BEN; first compound 0.3162 µM", "value": 1.08},
      {"measurement": "relative viability", "setting": "BEN; first compound 1 µM", "value": 1.1},
      {"measurement": "relative viability", "setting": "CAL-12T; first compound 0.01 µM", "value": 0.682},
      {"measurement": "relative viability", "setting": "CAL-12T; first compound 0.03162 µM", "value": 0.707},
      {"measurement": "relative viability", "setting": "CAL-12T; first compound 0.1 µM", "value": 0.75},
      {"measurement": "relative viability", "setting": "CAL-12T; first compound 0.3162 µM", "value": 0.693}
    ]}
  ]
}
